This assay deals with T1, Recombinant human renin (Homo sapiens, UniProt P00797).
T1 construct: made in house; host or cells: Chinese Hamster Ovary cells
T1 sequence (P00797 67-406): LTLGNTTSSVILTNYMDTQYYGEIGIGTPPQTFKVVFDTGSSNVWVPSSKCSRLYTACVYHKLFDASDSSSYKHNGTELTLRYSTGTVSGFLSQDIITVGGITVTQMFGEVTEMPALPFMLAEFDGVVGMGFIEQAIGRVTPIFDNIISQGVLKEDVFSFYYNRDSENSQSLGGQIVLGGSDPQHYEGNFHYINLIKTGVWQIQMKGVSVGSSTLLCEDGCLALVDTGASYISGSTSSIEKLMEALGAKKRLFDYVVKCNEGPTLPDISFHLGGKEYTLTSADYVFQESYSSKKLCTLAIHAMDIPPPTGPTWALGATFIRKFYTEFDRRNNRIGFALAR
The assay is described as follows: Renin inhibitory activity in vitro, hu-renin FRET assay. It is filed as biochemical. On the procedure: Recombinant human renin (expressed in Chinese Hamster Ovary cells and purified using standard methods) at 4 nM concentration is incubated with test compound at various concentrations for 1 h at RT in 0.1 M Tris-HCl buffer, pH 7.4, containing 0.05 M NaCl, 0.5 mM EDTA and 0.05% CHAPS. Synthetic peptide substrate Arg-Glu(EDANS)-Ile-His-Pro-Phe-His-Leu-Val-Ile_His_Thr-Lys(DABCYL)-Arg9 is added to a final concentration of 2 μM and increase in fluorescence is recorded at an excitation wave-length of 340 nm and at an emission wave-length of 485 nm in a microplate spectro-fluorimeter. IC50 values are calculated from percentage of inhibition of renin activity as a function of test compound concentration (Fluorescence Resonance Energy Transfer, FRET, assay). Recombinant human renin (expressed in Chinese Hamster Ovary cells and purified using standard methods) at 1 nM concentration is incubated with test compound at various concentrations for 1.5 h at 37° C. in 0.1 M Tris/HCl pH 7.4 containing 0.05 M NaCl, 0.5 mM EDTA and 0.025% (w/v) CHAPS. Synthetic peptide substrate Ac-Ile-His-Pro-Phe-His-Leu-Val-Ile-His-Asn-Lys-[DY-505-X5] is added to a final concentration of 5 μM. The enzyme reaction is stopped by adding 6 μL of 1.0% TFA. The product of the reaction is separated by HPLC and quantified by spectrophotometric measurement at […] wave-length. IC50 values are calculated from percentage of inhibition of renin activity as a function of test compound concentration.
Renin inhibitory activity was assessed in vitro by FRET assay (as above described). Results for representative compounds of formula I are: […]
As for `COCCCOc1cc(C[C@@H](C[C@H](N)[C@@H](O)C[C@H](C(=O)N[C@@H]2CCN(C)C2)C(C)C)C(C)C)ccc1OC` [Example 2, (2S,4S,5S,7S)-5-Amino-4-hydroxy-2-isopropyl-7-[4-methoxy-3-(3-methoxy-propoxy)-benzyl]-8-methyl-nonanoic acid ((R)-1-methyl-pyrrolidin-3-yl)-amide], the IC50 was 4 nM.

`COCCCOc1cc(C[C@@H](C[C@H](N)[C@@H](O)C[C@H](C(=O)NCc2ccoc2)C(C)C)C(C)C)ccc1OC` [Example 17, (2S,4S,5S,7S)-5-Amino-4-hydroxy-2-isopropyl-7-[4-methoxy-3-(3-methoxy-propoxy)-benzyl]-8-methyl-nonanoic acid (furan-3-ylmethyl)-amide]: the IC50 stood at 2.5 nM.

As to `COCCCOc1cc(C[C@@H](C[C@H](N)[C@@H](O)C[C@H](C(=O)NC[C@H]2CCCO2)C(C)C)C(C)C)ccc1C` [Example 27, (2S,4S,5S,7S)-5-Amino-4-hydroxy-2-isopropyl-7-[3-(3-methoxy-propoxy)-4-methyl-benzyl]-8-methyl-nonanoic acid [(R)-1-(tetrahydro-furan-2-yl)methyl]-amide], the IC50 worked out at 0.5 nM.

In the case of `COCCCOc1cc(C[C@@H](C[C@H](N)[C@@H](O)C[C@H](C(=O)N[C@@H]2CCOC2)C(C)C)C(C)C)ccc1OC` [Example 12, (2S,4S,5S,7S)-5-Amino-4-hydroxy-2-isopropyl-7-[4-methoxy-3-(3-methoxy-propoxy)-benzyl]-8-methyl-nonanoic acid ((R)-tetrahydrofuran-3-yl)-amide], the IC50 was 0.7 nM.

For `COCCCOc1cc(C[C@@H](C[C@H](N)[C@@H](O)C[C@H](C(=O)NCC2CCOC2)C(C)C)C(C)C)ccc1OC` (single isomer, unassigned) [Example 29, (2S,4S,5S,7S)-5-Amino-4-hydroxy-2-isopropyl-7-[4-methoxy-3-(3-methoxy-propoxy)-benzyl]-8-methyl-nonanoic acid [3(R) or 3(S)-1-(tetrahydro-furan-3-yl)methyl]-amide], the IC50 was 0.4 nM.

With `COCCCOc1cc(C[C@@H](C[C@H](N)[C@@H](O)C[C@H](C(=O)NCC2CCCCO2)C(C)C)C(C)C)ccc1OC` (single isomer, unassigned) [Example 20, (2S,4S,5S,7S)-5-Amino-4-hydroxy-2-isopropyl-7-[4-methoxy-3-(3-methoxy-propoxy)-benzyl]-8-methyl-nonanoic acid [(R)- or (S)-1-(tetrahydro-pyran-2-yl)methyl]-amide], the IC50 worked out at 7 nM.

Regarding `COCCCOc1cc(C[C@@H](C[C@H](N)[C@@H](O)C[C@H](C(=O)NC[C@@H]2CCCO2)C(C)C)C(C)C)ccc1OC` [Example 10, (2S,4S,5S,7S)-5-Amino-4-hydroxy-2-isopropyl-7-[4-methoxy-3-(3-methoxy-propoxy)-benzyl]-8-methyl-nonanoic acid [(S)-1-(tetrahydro-furan-2-yl)methyl]-amide], the IC50 was determined as 3.5 nM.

`COCCCOc1cc(C[C@@H](C[C@H](N)[C@@H](O)C[C@H](C(=O)NC[C@@H]2CCCO2)C(C)C)C(C)C)ccc1C` [Example 28, (2S,4S,5S,7S)-5-Amino-4-hydroxy-2-isopropyl-7-[3-(3-methoxy-propoxy)-4-methyl-benzyl]-8-methyl-nonanoic acid [(S)-1-(tetrahydro-furan-2-yl)methyl]-amide]: the IC50 was found to be 0.6 nM.

For `COCCCOc1cc(C[C@@H](C[C@H](N)[C@@H](O)C[C@H](C(=O)NCc2ccco2)C(C)C)C(C)C)ccc1OC` [Example 18, (2S,4S,5S,7S)-5-Amino-4-hydroxy-2-isopropyl-7-[4-methoxy-3-(3-methoxy-propoxy)-benzyl]-8-methyl-nonanoic acid (furan-2-ylmethyl)-amide], the IC50 turned out to be 0.9 nM.

Regarding `COCCCOc1cc(C[C@@H](C[C@H](N)[C@@H](O)C[C@H](C(=O)N[C@H]2CCN(C)C2)C(C)C)C(C)C)ccc1OC` [Example 3, (2S,4S,5S,7S)-5-Amino-4-hydroxy-2-isopropyl-7-[4-methoxy-3-(3-methoxy-propoxy)-benzyl]-8-methyl-nonanoic acid ((S)-1-methyl-pyrrolidin-3-yl)-amide], the 50% inhibitory concentration (IC50) worked out at 0.7 nM.

Consider `COCCCOc1cc(C[C@@H](C[C@H](N)[C@@H](O)C[C@H](C(=O)NC2CCN(C)CC2)C(C)C)C(C)C)ccc1OC` [Example 5, (2S,4S,5S,7S)-5-Amino-4-hydroxy-2-isopropyl-7-[4-methoxy-3-(3-methoxy-propoxy)-benzyl]-8-methyl-nonanoic acid (1-methyl-piperidin-4-yl)-amide], for which the IC50 came to 3.2 nM.

In the case of `COCCCOc1cc(C[C@@H](C[C@H](N)[C@@H](O)C[C@H](C(=O)N[C@H]2CCOC2)C(C)C)C(C)C)ccc1OC` [Example 13, (2S,4S,5S,7S)-5-Amino-4-hydroxy-2-isopropyl-7-[4-methoxy-3-(3-methoxy-propoxy)-benzyl]-8-methyl-nonanoic acid ((S)-tetrahydrofuran-3-yl)-amide], the IC50 is 0.2 nM.

Turning to `COCCCCc1cc(C[C@@H](C[C@H](N)[C@@H](O)C[C@H](C(=O)NC2CCOCC2)C(C)C)C(C)C)ccc1OC` [Example 36, (2S,4S,5S,7S)-5-Amino-4-hydroxy-2-isopropyl-7-[4-methoxy-3-(4-methoxy-butyl)-benzyl]-8-methyl-nonanoic acid (tetrahydro-pyran-4-yl)-amide], the IC50 was determined as 0.3 nM.

On to `COCCCOc1cc(C[C@@H](C[C@H](N)[C@@H](O)C[C@H](C(=O)NCC2CCCCO2)C(C)C)C(C)C)ccc1OC` (single isomer, unassigned) [Example 19, (2S,4S,5S,7S)-5-Amino-4-hydroxy-2-isopropyl-7-[4-methoxy-3-(3-methoxy-propoxy)-benzyl]-8-methyl-nonanoic acid [2(R) or 2(S)-1-(tetrahydro-pyran-2-yl)methyl]-amide], for which the concentration for half-maximal inhibition (IC50) stood at 8 nM.

Take `COCCCOc1cc(C[C@@H](C[C@H](N)[C@@H](O)C[C@H](C(=O)NC[C@H]2CCCO2)C(C)C)C(C)C)ccc1OC` [Example 11, (2S,4S,5S,7S)-5-Amino-4-hydroxy-2-isopropyl-7-[4-methoxy-3-(3-methoxy-propoxy)-benzyl]-8-methyl-nonanoic acid [(R)-1-(tetrahydro-furan-2-yl)methyl]-amide]: the IC50 turned out to be 4 nM.

Turning to `COCCCOc1cc(C[C@@H](C[C@H](N)[C@@H](O)C[C@H](C(=O)NCC2CCOC2)C(C)C)C(C)C)ccc1OC` (single isomer, unassigned) [Example 30, (2S,4S,5S,7S)-5-Amino-4-hydroxy-2-isopropyl-7-[4-methoxy-3-(3-methoxy-propoxy)-benzyl]-8-methyl-nonanoic acid [(R) or (S)-1-(tetrahydro-furan-3-yl)methyl]-amide], the IC50 was found to be 0.8 nM.

For the compound `COCCCOc1cc(C[C@@H](C[C@H](N)[C@@H](O)C[C@H](C(=O)NC2CCCOC2)C(C)C)C(C)C)ccc1OC` (single isomer, unassigned) [Example 23, (2S,4S,5S,7S)-5-Amino-4-hydroxy-2-isopropyl-7-[4-methoxy-3-(3-methoxy-propoxy)-benzyl]-8-methyl-nonanoic acid [(R)- or (S)-3-(tetrahydro-pyran-3-yl)]-amide], the IC50 worked out at 0.5 nM.

As for `COCCCOc1cc(C[C@@H](C[C@H](N)[C@@H](O)C[C@H](C(=O)NC2CCOCC2)C(C)C)C(C)C)ccc1C` [Example 26, (2S,4S,5S,7S)-5-Amino-4-hydroxy-2-isopropyl-7-[3-(3-methoxy-propoxy)-4-methyl-benzyl]-8-methyl-nonanoic acid (tetrahydro-pyran-4-yl)-amide], the IC50 turned out to be 0.5 nM.

As to `COCCCOc1cc(C[C@@H](C[C@H](N)[C@@H](O)C[C@H](C(=O)NC2CCOCC2)C(C)C)C(C)C)ccc1OC` [Example 1, (2S,4S,5S,7S)-5-Amino-4-hydroxy-2-isopropyl-7-[4-methoxy-3-(3-methoxy-propoxy)-benzyl]-8-methyl-nonanoic acid (tetrahydro-pyran-4-yl)-amide], the IC50 is 1.4 nM.

`COCCCOc1cc(C[C@@H](C[C@H](N)[C@@H](O)C[C@H](C(=O)NC2CCCOC2)C(C)C)C(C)C)ccc1OC` (single isomer, unassigned) [Example 22, (2S,4S,5S,7S)-5-Amino-4-hydroxy-2-isopropyl-7-[4-methoxy-3-(3-methoxy-propoxy)-benzyl]-8-methyl-nonanoic acid [(R)- or (S)-3-(tetrahydro-pyran-3-yl)]-amide]: the IC50 stood at 2.5 nM.

The values above are taken from patent US20090076062A1, “Organic Compounds” (priority 2007, published 2009).
